Data: EP1200455B1, “ENZYME CATALYZED THERAPEUTIC ACTIVATION” (Celmed Oncology (USA), Inc., priority 1999, dated 2001)

Key:
Normal Cells [1] = assay: AlamarBlue cell proliferation (cytotoxicity) assay, mean over normal cells; assay type: cell-based, human; settings: mean of CCd18co and Det551 (µM)
Procedure: (§1) Cells growing exponentially were transferred to 384-well flat bottom tissue culture plates. […] After 24 hours (day 0), 25 µL of complete medium containing the compounds over the dose range of 10^-3 to 10^-10 M were added in triplicate. Drug exposure time was 120 hours (day 5), after which growth inhibition was assayed. 5 µL of the redox indicator, alamarBlue, was added to each well (10% v/v).
(§2) Numbering in Tables 5 and 6 refer to the structures, shown infra. […] MCF7-TDX was derived from MCF7 breast tumor cells via selection in cell culture in the presence of Tomudex, a direct inhibitor of TS. […] Similarly, H630R10 is a 5FU (fluoropyrimidine) resistant colon cancer epithelial cell line derived from H630 colon cancer cells. […] HT1080, #12, is a fibrosarcoma tumor cell line that expresses high levels ofTS via a transgene introduced into HT1080 tumor cells. Normal cell lines used in these assays include CCD180co (normal colon epithelium) and Det551 (normal skin).

Tumor Cells [2] = assay: Crystal violet cell proliferation inhibition assay, mean over tumor cells; assay type: cell-based
Procedure: (§3) Compound concentrations from 1 µM to 3000 µM were tested.
as §2

HT1080 # 12 = assay: Crystal violet cell proliferation inhibition assay; assay type: cell-based; settings: high TS via transgene
Procedure: as §3, §2
(§4) Table 7. Cytotoxic Activity of NB1024 Isomers

H630R10 [3] = assay: Crystal violet cell proliferation inhibition assay; assay type: cell-based, human; settings: 72 hours incubation
Procedure: as §3, §2

Normal Cells [4] = assay: Crystal violet cell proliferation inhibition assay, mean over normal cells; assay type: cell-based, human; settings: mean of the CCD18co and Det551 columns
Procedure: as §3, §2

MCF7TDX = assay: AlamarBlue cell proliferation (cytotoxicity) assay; assay type: cell-based, human; settings: 120 hours drug exposure, dose range 10^-3 to 10^-10 M
Procedure: as §1, §2

Det551 [5] = assay: AlamarBlue cell proliferation (cytotoxicity) assay; assay type: cell-based, human; settings: 120 hours drug exposure, normal skin cells
Procedure: as §1, §2

H630R10 [6] = assay: AlamarBlue cell proliferation (cytotoxicity) assay; assay type: cell-based, human; settings: 120 hours drug exposure, dose range 10^-3 to 10^-10 M
Procedure: as §1, §2

CCd18co [7] = assay: AlamarBlue cell proliferation (cytotoxicity) assay; assay type: cell-based, human; settings: 120 hours drug exposure, normal colon epithelium cells
Procedure: as §1, §2

HT1080 = assay: AlamarBlue cell proliferation (cytotoxicity) assay; assay type: cell-based; settings: dose range 10^-3 to 10^-10 M
Procedure: as §1, §2

Tumor Cells [8] = assay: AlamarBlue cell proliferation (cytotoxicity) assay, mean over tumor cells; assay type: cell-based; settings: for mean IC30 over tumor cell lines: alamarBlue, mean of the MCF7TDX, H630R10 and HT1080 (µM); for activity (in words, summary of Tables 5 and 6): text comment on the cytotoxicity data
Procedure: as §1, §2

[9] = system: H630R10 (5-FU resistant colon cancer cell line); assay: Amount of nucleoside and monophosphate in cells (HPLC of lysates after BVdU treatment); settings: 2 days treatment with 100 µm BVdU
Procedure: (§5) 100 µM of BVdU was added to each dish and the cells continued to grow for 2 days at 37°C. After that, the medium was aspirated and the cells were washed twice with phosphate buffered saline (PBS). Then 1 ml of PBS per dish was added and the dishes were placed in a -80°C freezer. The cells were disrupted via freezing/thawing procedure, repeated twice. The cell debris in the resulting suspension were spun down (13,000 rpm,10 minutes) and the supernatant was deproteinized by passing though a Centrifugal Filter Device (Centrifree, 30,000 cut-off, Amicon) by centrifugation at 5,000 rpm for 30 minutes on Sorvall Super T21 centrifuge (Rotor SL-50-T, 1,912 g) at 20°C. The pass-through was concentrated to the volume of 100 µl, and injected onto an HPLC column (Adsorbosphere HS, C18, 5 µm, 4.6 mm x 150 mm, Alltech). The samples were analyzed using acetonitrile gradient in water containing trifluoroacetic acid. The peaks were detected at 300 mm the maximum of absorption of BVdU-derivatives, and the amounts of compounds were expressed as peak area at 300 nm. […]
(§6) The amounts of reference compounds BVdUMP or BVdU present in lysates call lines MCF7, MCF7TDX, and H630R10 each treated with BVdU, are expressed as an area of a corresponding HPLC peak at 300 nm. […]
(§7) Cells were incubated in complete media with 100 µm BVdU. Lysates were prepared and BVdUMP and BVdU levels were determined.

Det551 [10] = assay: Crystal violet cell proliferation inhibition assay; assay type: cell-based; settings: Homo sapiens, 72 hours incubation, normal skin cells
Procedure: as §3, §2, §4

CCd18co [11] = assay: Crystal violet cell proliferation inhibition assay; assay type: cell-based; settings: Homo sapiens, CCD-18Co, 72 hours incubation, normal colon epithelium cells
Procedure: as §3, §2, §4

[12] = system: MCF7TDX (Tomudex resistant breast cancer cell line)
Procedure: as §5, §6, §7

[13] = system: MCF7 (breast cancer cell line)
Procedure: as §5, §6, §7

[14] = system: H630R10 (5-FU resistant colon cancer cell line)
Procedure: as §5, §6, §7

[15] = Homo sapiens, HT-1080, 120 hours drug exposure

Compound: 5-(2-Bromovinyl)-2'-Deoxyuridine Phenyl N-Methoxy-L-alaninyl Phosphoramidate [NB1011]
- IC50 (Normal Cells [1]): 406 µM
- IC50 (Tumor Cells [2]; mean of the H630R10 and HT1080 # 12 columns (uM)): 65.6 µM
- IC50 (HT1080 # 12; 72 hours incubation): 1.2 µM
- IC50 (H630R10 [3]): 130 µM
- IC50 (Normal Cells [4]): 382 µM
- IC30 (MCF7TDX): 2 µM
- IC50 (Det551 [5]): 398 µM
- IC30 (H630R10 [6]): 82 µM
- IC50 (CCd18co [7]): 414 µM
- IC30 (HT1080; 120 hours drug exposure): 182 µM
- mean IC30 over tumor cell lines (Tumor Cells [8]): 88.7 µM

Compound: O=c1[nH]c(=O)n([C@H]2C[C@H](O)[C@@H](CO)O2)cc1/C=C/Br [BVdU, (E)-5-(2-Bromovinyl)-2'-deoxyuridine, reference compound]
- IC50 (Normal Cells [1]; Homo sapiens, CCD-18Co): 1000 µM
- IC50 (Tumor Cells [2]; Homo sapiens, HT-1080, mean of the H630R10 and HT1080 # 12 columns (uM)): 206 µM
- BvdUMP/(BVdUMP + BVdU) x100 [9]: < 4
- IC50 (Det551 [10]): 625 µM
- IC50 (HT1080 # 12; Homo sapiens, HT-1080, 72 hours incubation): 7 µM
- IC50 (CCd18co [11]): 1000 µM
- IC50 (H630R10 [3]; Homo sapiens): 405 µM
- IC50 (Normal Cells [4]; Homo sapiens, CCD-18Co): 812 µM
- IC30 (MCF7TDX; Homo sapiens): 0.02 µM
- IC30 (H630R10 [6]; Homo sapiens): 201 µM
- IC50 (CCd18co [7]; Homo sapiens, CCD-18Co): 1000 µM
- IC30 (HT1080; [15]): 719 µM
- mean IC30 over tumor cell lines (Tumor Cells [8]; Homo sapiens, HT-1080): 307 µM

Compound: O=c1[nH]c(=O)n([C@H]2C[C@H](O)[C@@H](COP(=O)(O)O)O2)cc1/C=C/Br [BVdUMP]
- amount present in cell lysate, expressed as area of the HPLC peak at 300 nm [12]: 10.9
- amount present in cell lysate, expressed as area of the HPLC peak at 300 nm [13]: 63.7
- amount present in cell lysate, expressed as area of the HPLC peak at 300 nm [14]: < 1

Compound: COC(=O)[C@H](C)NP(=O)(OC[C@H]1O[C@@H](n2cc(/C=C/Cl)c(=O)[nH]c2=O)C[C@@H]1O)Oc1ccccc1 (some centres unmarked) [NB1013]
- IC50 (Normal Cells [1]): 570 µM
- IC30 (MCF7TDX): 26 µM
- IC50 (Det551 [5]): 570 µM
- IC30 (H630R10 [6]): 92 µM
- mean IC30 over tumor cell lines (Tumor Cells [8]): 59 µM

Compound: COC(=O)C(C)NP(=O)(OCC1OC(n2cc(C(F)(F)F)c(=O)[nH]c2=O)CC1O)Oc1ccccc1 (centres unmarked) [NB1014]
- IC50 (Normal Cells [1]): 139 µM
- IC30 (MCF7TDX): 396 µM
- IC50 (Det551 [5]): 239 µM
- IC30 (H630R10 [6]): 287 µM
- mean IC30 over tumor cell lines (Tumor Cells [8]): 342 µM

Compound: O=c1[nH]c(=O)n([C@H]2C[C@H](O)[C@@H](CO)O2)cc1C=CCl [NB1020, 5-(2-chlorovinyl)-2'-deoxyuridine]
- IC50 (Normal Cells [1]; Homo sapiens, CCD-18Co): 1000 µM
- IC30 (MCF7TDX; Homo sapiens): 0.48 µM
- IC30 (H630R10 [6]; Homo sapiens): 326 µM
- IC50 (CCd18co [7]; Homo sapiens, CCD-18Co): 1000 µM
- IC30 (HT1080; [15]): 1000 µM
- mean IC30 over tumor cell lines (Tumor Cells [8]; Homo sapiens, HT-1080): 442 µM

Compound: COC(=O)C(C)NP(=O)(OCC1OC(n2ccc(=O)[nH]c2=O)CC1O)Oc1ccccc1 (centres unmarked) [NB1025]
- IC50 (Normal Cells [1]): 378 µM
- IC30 (MCF7TDX): 49 µM
- IC50 (CCd18co [7]): 378 µM
- IC30 (HT1080; 120 hours drug exposure): 454 µM
- mean IC30 over tumor cell lines (Tumor Cells [8]): 232 µM
- activity (in words, summary of Tables 5 and 6) (Tumor Cells [8]): active

Compound: O=c1ccn(C2CC(O)C(CO)O2)c(=O)[nH]1 (centres unmarked) [NB1026]
- IC30 (MCF7TDX): 1000 µM
- IC30 (H630R10 [6]): 1000 µM
- IC30 (HT1080; 120 hours drug exposure): 1000 µM
- activity (in words, summary of Tables 5 and 6) (Tumor Cells [8]): little detectable activity
